The results in this text go back to US10941152B2, “Pyrazole compounds as modulators of FSHR and uses thereof” (TOCOPHERX, INC., priority 2014, dated 2021).

The target of test [1] is T1, follicle-stimulating hormone (FSH) receptor (Rattus norvegicus, UniProt P20395).
T1 construct: endogenous in cells; host or cells: rat granulosa cells
T1 sequence (P20395 18-692): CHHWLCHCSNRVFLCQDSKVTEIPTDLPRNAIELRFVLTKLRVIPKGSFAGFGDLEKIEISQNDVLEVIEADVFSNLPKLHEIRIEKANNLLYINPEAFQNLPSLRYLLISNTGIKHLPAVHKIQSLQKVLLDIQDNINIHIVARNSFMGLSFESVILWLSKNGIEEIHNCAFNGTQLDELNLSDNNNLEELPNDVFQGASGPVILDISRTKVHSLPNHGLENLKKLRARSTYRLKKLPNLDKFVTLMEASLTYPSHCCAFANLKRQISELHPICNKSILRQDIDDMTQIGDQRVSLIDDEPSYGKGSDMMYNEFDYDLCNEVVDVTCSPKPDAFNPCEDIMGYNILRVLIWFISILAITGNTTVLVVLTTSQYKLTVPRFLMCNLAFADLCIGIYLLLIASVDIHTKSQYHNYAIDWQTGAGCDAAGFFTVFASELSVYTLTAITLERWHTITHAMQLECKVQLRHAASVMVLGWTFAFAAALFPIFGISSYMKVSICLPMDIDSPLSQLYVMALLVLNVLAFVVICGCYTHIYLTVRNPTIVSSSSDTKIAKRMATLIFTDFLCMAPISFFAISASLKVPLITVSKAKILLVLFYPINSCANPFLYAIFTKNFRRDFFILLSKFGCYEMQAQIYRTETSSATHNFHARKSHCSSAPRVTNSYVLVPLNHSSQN
Kind of test: Rat granulosa EC50 FSH (Assay B). Type of test: cell-based. How it is done:
Example 25. Rat granulosa EC50 FSH (Assay B)
The assay was performed pursuant to the teaching of Yanofsky et al. (2006) Allosteric activation of the follicle-stimulating hormone (FSH) receptor by selective, nonpeptide agonists (JBC 281(19): 13226-13233, which is incorporated by reference in the disclosure of the invention).

The target in another test is T2, FSHR (Homo sapiens, UniProt P23945).
T2 construct: expressed in transfected cells; host or cells: CHO (Cho-FSHR-LUC-1-1-43)
T2 sequence (P23945 18-695): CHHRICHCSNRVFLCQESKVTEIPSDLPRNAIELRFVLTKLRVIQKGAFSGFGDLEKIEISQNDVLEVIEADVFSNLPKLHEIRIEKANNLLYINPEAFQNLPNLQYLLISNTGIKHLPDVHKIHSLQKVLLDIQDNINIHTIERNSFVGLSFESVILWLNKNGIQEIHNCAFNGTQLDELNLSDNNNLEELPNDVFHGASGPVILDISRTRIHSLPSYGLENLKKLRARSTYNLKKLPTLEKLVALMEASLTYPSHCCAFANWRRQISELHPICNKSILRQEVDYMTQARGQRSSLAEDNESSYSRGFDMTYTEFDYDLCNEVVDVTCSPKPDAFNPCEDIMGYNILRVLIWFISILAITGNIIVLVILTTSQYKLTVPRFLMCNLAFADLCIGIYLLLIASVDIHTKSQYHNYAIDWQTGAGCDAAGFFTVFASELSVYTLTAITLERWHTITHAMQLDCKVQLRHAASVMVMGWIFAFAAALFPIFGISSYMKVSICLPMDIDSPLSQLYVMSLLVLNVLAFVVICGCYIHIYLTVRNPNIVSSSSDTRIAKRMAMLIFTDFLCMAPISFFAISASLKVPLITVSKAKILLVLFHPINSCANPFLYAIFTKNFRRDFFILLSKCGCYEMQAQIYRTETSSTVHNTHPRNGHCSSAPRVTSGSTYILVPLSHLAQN
In words: EC50 of cyclic AMP production in CHO FSHR cells + EC20 FSH (Assay A). Type of test: cell-based. To be noted: cyclic AMP production in CHO FSHR cells + EC20 FSH (0.265 pM), HTRF. Here is the method:
Example 24. EC50 of cyclic AMP production in CHO FSHR cells+EC20 FSH (Assay A)
2500 Cho-FSHR-LUC-1-1-43 cells were plated per well in 5 al of phenol red free DMEM/F12+1% FBS. Cells were plated in 384 well, solid white low volume plates (Greiner 784075) by Multidrop. Cells were assayed by adding 100 al of 2×EC20 FSH/IBMX in DMEM/F12+0.1% BSA) by Multidrop to 2 al of test compound stamped in 384 well plates (compounds are diluted 1:50). The final FSH concentration was 0.265 pM, and the final IBMX concentration was 200 μM. The compound plate map was as follows: Column 1: 2 μl of DMSO; Column 2: 2 μl of DMSO; Columns 3-12 and 13-24: 2 μl of test compound, diluted 1:4 in 100% DMSO, or 2 μl of FSH, diluted 1:4 in DMEM/F12+0.1% BSA. The starting concentration for FSH was 50 nM (final concentration was 0.5 nM). Furthermore, Column 23 contained 2 μl of EC100 FSH reference (100×) (diluted in DMEM/F12+0.1% BSA) at a final concentration of 0.5 nM, and Column 24 contained 2 μl of 1 mM AS707664/2 reference compound 2. 5 μl of compound+EC20 FSH mixture were transferred to cell plates (1:2 dilution into 5 μl of cell media) The plates were incubated at 37° C. for 1 h. 10 μl of mixed HTRF (CisBio #62AM4PEC) reagents were added per well and incubated at room temperature for 1 h. The plates were read on Envision using the cAMP HTRF—low volume 384 well protocol. The readout was the calculated fluorescence ratio (665 nm/620 nm). Values given in percent (%) indicate the percental effect (response) at a certain concentration of agonist relative to the maximum response of the FSH standard.

As usually defined, the EC50 is the midpoint of the concentration-response curve.

Bounds are passed on as bounds.

On to `COc1cc2c(cc1-c1cnn(CC(=O)O)c1)-c1c(c(C(=O)N(C)C(C)(C)C)nn1-c1cc(F)cc(F)c1)CO2` [Compound 87, 2-(4-(3-(tert-butyl(methyl)carbamoyl)-1-(3,5-difluorophenyl)-7-methoxy-1,4-dihydrochromeno[4,3-c]pyrazol-8-yl)-1H-pyrazol-1-yl)acetic acid], for which the EC50 in test [1] was 101 to 500 nM; on FSHR it was 10 to 100 nM.

Regarding `COc1cc2c(cc1-c1ccn(C)n1)-c1c(c(C(=O)N(CCO)C(C)(C)C)nn1-c1cc(Cl)cc(Cl)c1)CO2` [Compound 122, N-tert-butyl-1-(3,5-dichlorophenyl)-N-(2-hydroxyethyl)-7-methoxy-8-(1-methyl-1H-pyrazol-3-yl)-1,4-dihydrochromeno[4,3-c]pyrazole-3-carboxamide], the EC50 lay in the range of 101 to 500 nM in test [1] and 10 to 100 nM on FSHR.

For `COc1cc2c(cc1-c1ccn(C)n1)-c1c(c(C(=O)N(C)C(C)(C)C)nn1-c1cc(F)cc(Cl)c1)CO2` [Compound 27, N-tert-butyl-1-(3-chloro-5-fluorophenyl)-7-methoxy-N-methyl-8-(1-methyl-1H-pyrazol-3-yl)-1,4-dihydrochromeno[4,3-c]pyrazole-3-carboxamide], the concentration giving a half-maximal response (EC50) in test [1] is above 500 nM; on FSHR it was 10 to 100 nM.

In the case of `COc1cc2c(cc1-c1cc(F)cc(CO)c1)-c1c(c(C(=O)N(C)C(C)(C)C)nn1-c1cc(Cl)cc(Cl)c1)CO2` [Compound 80, N-tert-butyl-1-(3,5-dichlorophenyl)-8-(3-fluoro-5-(hydroxymethyl)phenyl)-7-methoxy-N-methyl-1,4-dihydrochromeno[4,3-c]pyrazole-3-carboxamide], the concentration giving a half-maximal response (EC50) in test [1] was 101 to 500 nM; on FSHR, below 10 nM.

With `COc1cc2c(cc1-c1cc(C(N)=O)ncc1F)-c1c(c(C(=O)N3CCOCC3(C)C)nn1-c1cc(F)cc(F)c1)CO2` [Compound 72, 4-(1-(3,5-difluorophenyl)-3-(3,3-dimethylmorpholine-4-carbonyl)-7-methoxy-1,4-dihydrochromeno[4,3-c]pyrazol-8-yl)-5-fluoropicolinamide], the half-maximal effective concentration (EC50) is 10 to 100 nM in test [1] and below 10 nM on FSHR.

`COc1cc2c(cc1-c1cc(C#N)ccn1)-c1c(c(C(=O)N(C)C(C)(C)C)nn1-c1cc(Cl)cc(Cl)c1)CO2` [Compound 26, N-tert-butyl-8-(4-cyanopyridin-2-yl)-1-(3,5-dichlorophenyl)-7-methoxy-N-methyl-1,4-dihydrochromeno[4,3-c]pyrazole-3-carboxamide]: the EC50 in test [1] lay within 101 to 500 nM; at FSHR, 10 to 100 nM.

With `COc1cc(F)cc(-n2nc(C(=O)N3CCOCC3(C)C)c3c2-c2cc(-c4cnn(CC(=O)O)c4)c(OC)cc2OC3)c1` [Compound 89, 2-(4-(3-(3,3-dimethylmorpholine-4-carbonyl)-1-(3-fluoro-5-methoxyphenyl)-7-methoxy-1,4-dihydrochromeno[4,3-c]pyrazol-8-yl)-1H-pyrazol-1-yl)acetic acid], the 50% effective concentration (EC50) is 101 to 500 nM in test [1] and below 10 nM on FSHR.

With `COc1cc2c(cc1-c1cncc(C(N)=O)c1C)-c1c(c(C(=O)N(C)C(C)(C)C#N)nn1-c1cc(Cl)cc(Cl)c1)CO2` [Compound 118, 8-(5-carbamoyl-4-methylpyridin-3-yl)-N-(2-cyanopropan-2-yl)-1-(3,5-dichlorophenyl)-7-methoxy-N-methyl-1,4-dihydrochromeno[4,3-c]pyrazole-3-carboxamide], the EC50 in test [1] is 10 to 100 nM; on FSHR, below 10 nM.

Take `CNC(=O)c1cncc(-c2cc3c(cc2OC)OCc2c(C(=O)N4CCOCC4(C)C)nn(-c4cc(Cl)cc(Cl)c4)c2-3)c1` [Compound 94, 5-(1-(3,5-dichlorophenyl)-3-(3,3-dimethylmorpholine-4-carbonyl)-7-methoxy-1,4-dihydrochromeno[4,3-c]pyrazol-8-yl)-N-methylnicotinamide]: the half-maximal effective concentration (EC50) (in test [1]; at FSHR) was below 10 nM in each case.

`COc1cc2c(cc1-c1cncc(C(N)=O)c1)-c1c(c(C(=O)N(C)C(C)(C)C#N)nn1-c1cc(F)cc(Cl)c1)CO2` [Compound 110, 8-(5-carbamoylpyridin-3-yl)-1-(3-chloro-5-fluorophenyl)-N-(2-cyanopropan-2-yl)-7-methoxy-N-methyl-1,4-dihydrochromeno[4,3-c]pyrazole-3-carboxamide]: the concentration giving a half-maximal response (EC50) in test [1] was 10 to 100 nM; at FSHR, below 10 nM.

`COc1cc2c(cc1-c1ccc(N)nc1)-c1c(c(C(=O)N(C)C(C)(C)C)nn1-c1cc(Cl)cc(Cl)c1)CO2` [Compound 16, 8-(6-aminopyridin-3-yl)-N-tert-butyl-1-(3,5-dichlorophenyl)-7-methoxy-N-methyl-1,4-dihydrochromeno[4,3-c]pyrazole-3-carboxamide]: the half-maximal effective concentration (EC50) in test [1] was 101 to 500 nM; at FSHR it was below 10 nM.

Consider `COc1cc2c(cc1-c1cccnc1F)-c1c(c(C(=O)N3CC[S+]([O-])CC3(C)C)nn1-c1cc(Cl)cc(Cl)c1)CO2` (stereo not drawn) [Compound 6, (1-(3,5-dichlorophenyl)-8-(2-fluoropyridin-3-yl)-7-methoxy-1H,4H-chromeno[4,3-c]pyrazol-3-yl)(S-oxo-3,3-dimethylthiomorpholino)methanone], for which the values for the EC50 (in test [1]; on FSHR) were 101 to 500 nM and below 10 nM, respectively.

Turning to `COc1cc2c(cc1-c1nccc(C(N)=O)n1)-c1c(c(C(=O)N(C)C(C)(C)C)nn1-c1cc(Cl)cc(Cl)c1)CO2` [Compound 111, N-tert-butyl-8-(4-carbamoylpyrimidin-2-yl)-1-(3,5-dichlorophenyl)-7-methoxy-N-methyl-1,4-dihydrochromeno[4,3-c]pyrazole-3-carboxamide], the EC50 lay within 101 to 500 nM in test [1] and 10 to 100 nM at FSHR.

In the case of `COc1cc2c(cc1-c1cc(C#N)c[n+]([O-])c1)-c1c(c(C(=O)N3CCOCC3(C)C)nn1-c1cc(Cl)cc(Cl)c1)CO2` [Compound 177], the values for the half-maximal effective concentration (EC50) (in test [1]; on FSHR) were 10 to 100 nM and below 10 nM, respectively.

For `COc1cc(OC)cc(-n2nc(C(=O)N3CCOCC3(C)C)c3c2-c2cc(-c4cncc(C)c4)c(OC)cc2OC3)c1` [Compound 43, (1-(3,5-dimethoxyphenyl)-7-methoxy-8-(5-methylpyridin-3-yl)-1,4-dihydrochromeno[4,3-c]pyrazol-3-yl)(3,3-dimethylmorpholino)methanone], the figures for the EC50 (in test [1]; at FSHR) were 10 to 100 nM and below 10 nM, respectively.
